From article PMC10975719, “Tobramycin Reduces Pulmonary Toxicity of Polymyxin B via Inhibiting the Megalin-Mediated Drug Uptake in the Human Lung Epithelial Cells” (Pharmaceutics, 2024)
Read-outs that look alike come from different tables or passages of the source. Bridge positions count the residues as written; N and C are the ends. Square brackets hold non-standard residues; d marks the D form. Peptide text beside a SMILES is read from it. * marks the point of attachment. X1 = CC[C@H](C)CCCCC(=O)*; Dab = NCC[C@H](N)C(=O)O

Columns and labels:
[1] = tested on: human lung epithelial Calu-3 cells; type: cell-based
Procedure: Assessment of cytotoxicity was performed using aqueous solutions of polymyxin B, tobramycin, and the combination of both in human lung epithelial Calu-3 cells. This cytotoxicity assessment aimed to determine safe drug concentrations for the transport and imaging experiments. Cells were seeded in 96-well flat bottom plate (Corning, NY, USA) at a density of 2 × 10^5 cells/mL. A wide concentration range was chosen, considering a molar ratio of 1:5 polymyxin B to tobramycin based on the literature. Lactate dehydrogenase (LDH) assay was used for the measurement of cytotoxicity. Vehicle-treated cells were considered as the negative control, while 10× lysis buffer treated cells were employed as the positive control. For the imaging study, Calu-3 cells were cultured in a 35 mm glass bottom culture dish at a density of 2 × 10^5 cells/mL and were treated with a vehicle, tobramycin 700 mg/L, polymyxin B 300 mg/L, and the combination. After treatment, cells were washed with PBS and stained with PI (100 ng/mL) and DAPI (1 mg/L) for 30 min in dark. Cells were washed again with PBS and mounted for imaging with Calu-3 cell culture media.

[2] = tested on: Calu-3 cell monolayer; experiment: Transport study in air liquid interface Calu-3 cell monolayer; conditions: LC-MS/MS; for transport rate, apparent permeability coefficient (Papp), in combination compared to drug alone / amount remaining in the apical chamber, combination compared to drug alone / transport from apical chamber to basal medium: Calu-3 ALI monolayer; for transport rate, apparent permeability coefficient (Papp), in combination compared to drug alone: apical to basal, polymyxin B 30 mg/L + tobramycin 70 mg/L vs each alone, p < 0.0001; for transport rate, apparent permeability coefficient (Papp), in combination compared to drug alone / accumulation in Calu-3 cell monolayer / transport from apical chamber to basal medium: HBSS; for amount remaining in the apical chamber, combination compared to drug alone: after 4 h of transport study; for accumulation in Calu-3 cell monolayer: at 4 h; for transport from apical chamber to basal medium: 4 h
Procedure: Human lung epithelial Calu-3 cells were grown in a 6.5 mm cell culture insert in a trans-well plate for 3 days using both apical and basal media. The apical media was withdrawn to let the cells grow in an air liquid interface (ALI). The system was maintained for 14 days, with the basal media changed every other day. The culture medium was DMEM/F-12 supplemented with 10% (v/v, FBS) and 1% (v/v) nonessential amino acid, and penicillin and streptomycin (100 units/mL of penicillin and 100 mg/L of streptomycin). After 14 days of differentiation at the ALI condition, the trans-epithelial electrical resistance (TEER) value was measured to investigate the integrity of the formed Calu-3 monolayer.
The transport study was conducted in the Calu-3 cell monolayer according to our previously published ALI culture protocol. TEER values were measured before and after the transport study to ensure the cell monolayer integrity was maintained. As the transport process was done in HBSS buffer, the drug solution was also prepared in HBSS buffer. The cell monolayer inserts were incubated with HBSS buffer for 30 min to equilibrate. The following drug solutions were used in the transport process: polymyxin B 30 mg/L, tobramycin 70 mg/L, and the combination of polymyxin B 30 mg/L and tobramycin 70 mg/L. An aliquot of 200 µL of drug solution was added to the apical chamber and 600 µL of HBSS buffer was added to the basal chamber. The samples were collected from the basal chamber every hour for a total of 4 h and the basal chamber was refilled with fresh HBSS buffer. Transported drug from the basal chamber, remaining drug from the apical chamber, and drug accumulated in the cell monolayer were extracted and analyzed using a reversed-phase LC/MS system. Drug extraction and LC/MS analysis was performed according to a previously published protocol.
For the transported samples, all buffer in the basal chamber was collected to a centrifuge tube. Colistin (1 mg/L) was added as the internal standard, and formic acid (0.1%, v/v) was added to each sample. For drug analysis in the cell, the insert was cut using a sharp scalpel. The cells in the membrane were lysed overnight with RIPA buffer and 200 µL of each sample was used to extract the drug using a protein precipitation method. Acetonitrile (400 µL) was added to the cell lysate and vortexed well to precipitate all the protein. Internal standard and formic acid were added to the samples as previously described, vortexed well, and centrifuged before transferring the supernatant into the injection vial.
The drugs were analyzed using an LC-MS/MS equipped with a C18 column (2.6 μm, 50 mm × 3 mm), a liquid chromatography system (Agilent 1200, Santa Clara, CA, USA), and a triple quadrupole mass spectrometer (Agilent 6460 QQQ, Santa Clara, CA, USA) with an electrospray ionization source. The mobile phase was 0.1% formic acid solution in water (90%) and 0.1% formic acid solution in acetonitrile (10%) with a flow rate of 0.6 mL/min. A gradient elution procedure was used, and each component was measured via multiple reaction monitoring (MRM) in the positive ionization mode (Table 1).

[3] = target: T1, megalin (Homo sapiens, UniProt P98164); experiment: Megalin substrate FITC-BSA uptake by Calu-3 cells, confocal microscopy; type: cell-based; conditions: 4 h; for ratio of FITC-BSA to nucleus integrated density: 100 mg/L FITC-BSA, Calu-3 cells, FITC-BSA only 0.58 ± 0.04; for effect on cellular uptake of FITC-BSA: polymyxin B 30 and 60 mg/L, tobramycin 70 and 140 mg/L
T1 construct: endogenous in cells; host or cells: Calu-3 (human lung epithelial cells)
T1 sequence (P98164 26-4655): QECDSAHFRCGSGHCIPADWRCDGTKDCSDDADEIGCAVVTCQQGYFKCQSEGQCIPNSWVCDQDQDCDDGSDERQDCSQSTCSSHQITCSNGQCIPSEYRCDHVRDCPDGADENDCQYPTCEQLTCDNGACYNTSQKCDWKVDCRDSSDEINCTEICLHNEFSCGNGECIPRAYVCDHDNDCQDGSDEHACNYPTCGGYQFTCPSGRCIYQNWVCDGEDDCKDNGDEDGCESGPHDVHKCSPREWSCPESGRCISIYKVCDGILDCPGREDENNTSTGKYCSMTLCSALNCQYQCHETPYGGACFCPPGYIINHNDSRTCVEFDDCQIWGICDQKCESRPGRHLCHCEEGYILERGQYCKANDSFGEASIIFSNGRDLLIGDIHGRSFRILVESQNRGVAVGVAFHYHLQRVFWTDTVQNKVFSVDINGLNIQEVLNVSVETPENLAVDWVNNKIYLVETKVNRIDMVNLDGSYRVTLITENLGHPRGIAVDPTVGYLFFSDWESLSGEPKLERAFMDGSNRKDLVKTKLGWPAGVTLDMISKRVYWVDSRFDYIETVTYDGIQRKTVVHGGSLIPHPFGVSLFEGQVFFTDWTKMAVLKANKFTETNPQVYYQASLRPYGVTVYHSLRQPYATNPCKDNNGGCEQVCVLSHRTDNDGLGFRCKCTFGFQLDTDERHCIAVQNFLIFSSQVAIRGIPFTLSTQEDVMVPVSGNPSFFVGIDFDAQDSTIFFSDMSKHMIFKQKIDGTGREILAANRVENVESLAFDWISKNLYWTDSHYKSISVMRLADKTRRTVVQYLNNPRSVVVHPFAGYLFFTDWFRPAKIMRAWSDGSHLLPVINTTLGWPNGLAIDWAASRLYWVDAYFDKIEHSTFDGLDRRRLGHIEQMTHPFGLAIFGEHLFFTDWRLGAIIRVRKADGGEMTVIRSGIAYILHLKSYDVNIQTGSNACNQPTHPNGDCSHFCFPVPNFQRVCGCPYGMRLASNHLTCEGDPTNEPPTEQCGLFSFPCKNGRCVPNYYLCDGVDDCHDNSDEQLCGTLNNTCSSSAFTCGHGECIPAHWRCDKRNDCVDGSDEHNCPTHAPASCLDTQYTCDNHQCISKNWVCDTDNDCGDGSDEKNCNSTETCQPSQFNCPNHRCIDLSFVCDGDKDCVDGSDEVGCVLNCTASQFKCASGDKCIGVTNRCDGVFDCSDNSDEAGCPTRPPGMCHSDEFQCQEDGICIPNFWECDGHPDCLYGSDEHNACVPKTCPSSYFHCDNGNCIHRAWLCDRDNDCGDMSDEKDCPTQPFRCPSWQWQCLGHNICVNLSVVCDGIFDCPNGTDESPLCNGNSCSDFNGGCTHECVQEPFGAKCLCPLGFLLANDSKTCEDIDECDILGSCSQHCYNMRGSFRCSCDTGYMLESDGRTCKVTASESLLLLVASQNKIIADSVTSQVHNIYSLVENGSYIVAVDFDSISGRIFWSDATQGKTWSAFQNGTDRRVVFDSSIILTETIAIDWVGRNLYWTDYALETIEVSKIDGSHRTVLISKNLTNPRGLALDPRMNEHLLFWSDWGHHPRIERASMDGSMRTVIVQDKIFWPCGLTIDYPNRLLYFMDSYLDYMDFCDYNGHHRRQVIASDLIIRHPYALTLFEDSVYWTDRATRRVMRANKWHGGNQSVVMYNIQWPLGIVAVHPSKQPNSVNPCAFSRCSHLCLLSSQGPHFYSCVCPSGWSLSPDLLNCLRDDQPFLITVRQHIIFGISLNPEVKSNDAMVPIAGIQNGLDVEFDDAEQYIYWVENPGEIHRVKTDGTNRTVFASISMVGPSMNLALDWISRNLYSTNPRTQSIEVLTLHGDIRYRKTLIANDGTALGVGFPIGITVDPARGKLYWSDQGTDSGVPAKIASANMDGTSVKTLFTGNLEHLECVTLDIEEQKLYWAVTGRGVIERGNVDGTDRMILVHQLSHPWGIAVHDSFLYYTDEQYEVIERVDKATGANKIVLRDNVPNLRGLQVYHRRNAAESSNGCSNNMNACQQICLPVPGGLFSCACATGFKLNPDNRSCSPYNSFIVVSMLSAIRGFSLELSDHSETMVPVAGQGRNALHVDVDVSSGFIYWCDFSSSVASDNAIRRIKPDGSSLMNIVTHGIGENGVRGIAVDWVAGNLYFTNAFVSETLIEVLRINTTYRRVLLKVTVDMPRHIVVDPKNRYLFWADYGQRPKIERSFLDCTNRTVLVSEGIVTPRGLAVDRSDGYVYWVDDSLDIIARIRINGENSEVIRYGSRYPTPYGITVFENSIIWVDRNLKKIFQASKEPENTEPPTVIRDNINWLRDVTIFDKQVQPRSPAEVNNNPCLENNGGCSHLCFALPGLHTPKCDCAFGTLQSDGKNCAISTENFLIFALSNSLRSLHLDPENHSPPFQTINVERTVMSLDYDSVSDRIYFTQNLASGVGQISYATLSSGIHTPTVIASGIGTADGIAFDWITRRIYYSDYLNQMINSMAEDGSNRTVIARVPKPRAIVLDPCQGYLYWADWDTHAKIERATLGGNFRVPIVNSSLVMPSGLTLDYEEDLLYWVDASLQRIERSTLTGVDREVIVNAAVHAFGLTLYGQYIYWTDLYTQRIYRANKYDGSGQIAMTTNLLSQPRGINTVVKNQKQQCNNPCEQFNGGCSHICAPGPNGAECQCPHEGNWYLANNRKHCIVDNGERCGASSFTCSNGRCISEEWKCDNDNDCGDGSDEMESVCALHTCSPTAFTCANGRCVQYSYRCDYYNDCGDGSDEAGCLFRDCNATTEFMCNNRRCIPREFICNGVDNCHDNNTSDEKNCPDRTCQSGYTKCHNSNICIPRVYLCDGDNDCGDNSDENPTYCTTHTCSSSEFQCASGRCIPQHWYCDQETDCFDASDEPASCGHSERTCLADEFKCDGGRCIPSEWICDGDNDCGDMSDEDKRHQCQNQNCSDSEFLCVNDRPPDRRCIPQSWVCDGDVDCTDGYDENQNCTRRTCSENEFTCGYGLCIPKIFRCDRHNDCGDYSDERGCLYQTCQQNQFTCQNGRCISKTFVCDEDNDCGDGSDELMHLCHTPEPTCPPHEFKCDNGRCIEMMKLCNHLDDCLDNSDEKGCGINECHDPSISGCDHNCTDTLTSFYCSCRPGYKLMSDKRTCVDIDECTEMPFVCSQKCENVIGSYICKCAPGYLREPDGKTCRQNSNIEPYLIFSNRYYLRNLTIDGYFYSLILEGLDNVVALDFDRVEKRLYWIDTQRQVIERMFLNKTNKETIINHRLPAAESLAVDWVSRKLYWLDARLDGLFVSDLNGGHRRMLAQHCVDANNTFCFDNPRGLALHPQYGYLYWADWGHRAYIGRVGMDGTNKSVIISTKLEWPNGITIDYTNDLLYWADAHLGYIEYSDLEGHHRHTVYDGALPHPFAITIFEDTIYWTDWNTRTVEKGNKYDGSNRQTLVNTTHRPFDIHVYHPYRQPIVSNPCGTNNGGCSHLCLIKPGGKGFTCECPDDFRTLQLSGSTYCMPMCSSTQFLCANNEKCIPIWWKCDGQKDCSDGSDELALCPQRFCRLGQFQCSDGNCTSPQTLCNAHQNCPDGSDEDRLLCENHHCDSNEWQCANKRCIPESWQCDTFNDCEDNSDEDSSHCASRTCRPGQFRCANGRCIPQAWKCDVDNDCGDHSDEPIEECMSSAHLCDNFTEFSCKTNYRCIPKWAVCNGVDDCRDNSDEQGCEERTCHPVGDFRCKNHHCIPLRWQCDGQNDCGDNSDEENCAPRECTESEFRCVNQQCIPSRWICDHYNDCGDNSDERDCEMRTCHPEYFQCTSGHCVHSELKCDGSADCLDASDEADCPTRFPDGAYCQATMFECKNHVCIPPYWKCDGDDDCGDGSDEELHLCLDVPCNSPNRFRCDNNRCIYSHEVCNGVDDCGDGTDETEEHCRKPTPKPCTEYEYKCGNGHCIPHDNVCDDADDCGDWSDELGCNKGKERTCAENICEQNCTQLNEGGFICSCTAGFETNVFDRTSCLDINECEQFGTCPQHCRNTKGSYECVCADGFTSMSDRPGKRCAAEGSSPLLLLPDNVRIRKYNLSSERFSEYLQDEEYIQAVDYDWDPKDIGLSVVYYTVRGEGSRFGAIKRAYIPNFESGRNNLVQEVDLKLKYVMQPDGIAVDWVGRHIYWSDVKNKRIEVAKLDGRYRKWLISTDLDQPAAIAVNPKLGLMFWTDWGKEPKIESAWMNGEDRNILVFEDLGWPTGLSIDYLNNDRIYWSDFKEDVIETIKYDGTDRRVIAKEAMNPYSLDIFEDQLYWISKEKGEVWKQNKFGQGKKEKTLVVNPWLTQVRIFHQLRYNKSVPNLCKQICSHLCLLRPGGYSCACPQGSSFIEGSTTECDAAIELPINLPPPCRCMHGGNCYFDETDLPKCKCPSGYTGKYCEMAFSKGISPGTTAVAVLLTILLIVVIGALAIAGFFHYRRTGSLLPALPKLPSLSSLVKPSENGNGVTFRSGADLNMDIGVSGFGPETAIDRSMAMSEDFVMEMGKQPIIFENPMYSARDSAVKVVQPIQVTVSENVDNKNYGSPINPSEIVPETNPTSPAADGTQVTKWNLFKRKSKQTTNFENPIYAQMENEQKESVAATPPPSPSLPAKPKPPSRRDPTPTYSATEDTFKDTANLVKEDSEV
Procedure: As albumin is an endogenous substrate of megalin [30], cellular distribution of fluorescein-labeled BSA (FITC-BSA) was evaluated in the presence of polymyxin B and tobramycin to investigate the functional activity of megalin in Calu-3 cells. Calu-3 cells were grown in an eight-well chamber slide at a density of 2 × 10^5 cell/mL in 10% FBS supplemented DMEM/F-12 cell culture media. After overnight incubation at 37 °C and 5% CO2, cells were washed to remove old media and were incubated for 4 h with 100 μg/mL of FITC-BSA in fresh cell culture media and in the presence and absence of polymyxin B (30 and 60 mg/L) and tobramycin (70 and 140 mg/L). After 4 h, cells were washed and stained with Hoechst for nucleus staining and cell mask deep red for cell membrane staining. Cells were finally washed and covered with Prolong gold antifade mounting reagent and mounted on a 60× oil immersion objective for imaging. Images were taken with a Nikon Eclipse T1 confocal microscope. Images were processed with Nikon (NIS-Elements) and Image J (version 1.54) software.

[4] = tested on: Calu-3 cell monolayer; experiment: Transport in Calu-3 cell monolayer in presence of megalin inhibitor sodium maleate; type: in vitro ADME, human; conditions: for cellular accumulation / remaining in the apical chamber / intracellular accumulation normalized to protein: 2 h; for intracellular accumulation normalized to protein: Calu-3 monolayer lysate (RIPA)
Procedure: The transport behavior of polymyxin B and tobramycin in the Calu-3 cell monolayer were also evaluated in the presence of 8 mg/mL of sodium maleate, an agent known to inhibit megalin receptors via shedding of the megalin protein [23]. Calu-3 cell monolayer in trans-well inserts was formed following our previously published ALI culture protocol. Cell monolayers were pre-incubated with 8 mg/mL of sodium maleate for 4 h and were subsequently incubated with polymyxin B and tobramycin for 2 h. Samples were collected from the apical and basal chambers of the ALI culture system, analyzed using an LC-MS/MS system, and the drug content was calculated. The cell monolayer was then lysed with lysis buffer (RIPA buffer, Catalogue 89900, Thermofisher Scientific, Waltham, MA, USA) and cellular drug content was measured. Cell lysate (25 µL) from each sample was used for protein measurement. The amount of drug accumulated in the cell was normalized according to the amount of protein present in the samples. Polymyxin B and tobramycin concentrations in the samples, in the presence and absence of the megalin inhibitor sodium maleate, were plotted and statistical significance was calculated using Graph Pad Prism (version 9).

[5] = tested on: Calu-3 cells; experiment: Cellular uptake of polymyxin B by confocal microscopy (anti-polymyxin B antibody, Alexa 647); type: cell-based, human; conditions: 4 h
Procedure: Polymyxin B distribution in the Calu-3 cell monolayer was investigated using confocal laser scanning microscopy (CLSM). At the end of the transport process, the Calu-3 cell monolayer was prepared for imaging. The cell monolayer was washed with phosphate-buffered saline after treatment and fixed with 4% paraformaldehyde for 15 min. The cell monolayer was then permeabilized with 0.1% triton X-100 for 10 min and blocked with 3% goat serum in 0.1% triton X-100 for 2 h. To stain intracellular polymyxin B, the cell monolayer was then incubated overnight with mouse anti-polymyxin B antibody at 4 °C in the dark. After overnight incubation, the cell monolayer was incubated with goat anti-mouse IgG conjugated with Alexa Flour™ 647 for 2 h at room temperature. The nuclei were stained with Hoechst 33342.
For the drug accumulation study, Calu-3 cells were cultured in a glass bottom 35 mm dish (Ashland, MA, USA) and were incubated with 30 mg/L polymyxin B in the absence and presence of 70 mg/L tobramycin for 4 h. […] For the drug accumulation study, the background subtracted integrated density of Alexa Flour 647 (for polymyxin B) was calculated and data were presented as mean polymyxin B intensity per cell. Cell numbers per imaging field were counted using the Hoechst 33342 intensity and ImageJ “cell counter” Macro (ImageJ version 2.9).

[6] = tested on: renal cortex; conditions: 400 mg/kg of sodium maleate administration, within 3 h after injection; cited from earlier work
[7] = combination (polymyxin B 30 mg/L + tobramycin 70 mg/L), p < 0.0001 vs alone
[8] = drug alone (polymyxin B 30 mg/L or tobramycin 70 mg/L), cell lysate RIPA
[9] = drug alone, without sodium maleate, Calu-3 ALI monolayer, LC-MS/MS
[10] = with sodium maleate 8 mg/mL (4 h pre-incubation), Calu-3 ALI monolayer, LC-MS/MS

NC[C@H]1O[C@H](O[C@H]2[C@H](O)[C@@H](O[C@H]3O[C@H](CO)[C@@H](O)[C@H](N)[C@H]3O)[C@H](N)C[C@@H]2N)[C@H](N)C[C@@H]1O [tobramycin]
reduction in viability of Calu-3 cells compared to the control [1]: did not result in any reduction in the viability
transport rate, apparent permeability coefficient (Papp), in combination compared to drug alone [2]: decreased significantly
amount remaining in the apical chamber, combination compared to drug alone [2]: Significantly higher amounts
accumulation in Calu-3 cell monolayer [2, 7]: 3.8 ± 0.8%
accumulation in Calu-3 cell monolayer [2, 8]: 13.2 ± 4.3%
ratio of FITC-BSA to nucleus integrated density ([3]; 70 mg/L tobramycin): 0.41 ± 0.02
ratio of FITC-BSA to nucleus integrated density ([3]; 140 mg/L tobramycin): 0.30 ± 0.02
effect on cellular uptake of FITC-BSA [3]: prevented the cellular uptake of FITC-BSA in a concentration-dependent manner
transported from the apical chamber to the basal chamber [4]: 11.9 ± 1.3%

CC[C@H](C)CCCCC(=O)N[C@@H](CCN)C(=O)N[C@H](C(=O)N[C@@H](CCN)C(=O)N[C@H]1CCNC(=O)[C@H]([C@@H](C)O)NC(=O)[C@H](CCN)NC(=O)[C@H](CCN)NC(=O)[C@H](CC(C)C)NC(=O)[C@@H](Cc2ccccc2)NC(=O)[C@H](CCN)NC1=O)[C@@H](C)O [polymyxin B, Polymyxin B] (X1-[Dab]T[Dab][Dab][Dab][dF]L[Dab][Dab]T; lactam 4-C)
safety of concentrations chosen for the transport study ([1]; 30 mg/L polymyxin B alone, 70 mg/L tobramycin alone, and their combination, based on cell viability data): safe
cell death compared to the control ([1]; at 300 mg/L, LDH assay): significant cell death
PI intensity ([1]; polymyxin B 300 mg/L treated Calu-3 cells, mean ± SD (n = 3), p < 0.001 vs control): 4334.0 ± 1131.6
transport rate, apparent permeability coefficient (Papp), in combination compared to drug alone [2]: decreased significantly
amount remaining in the apical chamber, combination compared to drug alone [2]: Significantly higher amounts
transport from apical chamber to basal medium [2, 7]: 3.9 ± 0.3%
accumulation in Calu-3 cell monolayer [2, 7]: 6.4 ± 0.1%
accumulation in Calu-3 cell monolayer [2, 8]: 21.4 ± 2.0%
transport from apical chamber to basal medium ([2]; drug alone (polymyxin B 30 mg/L), 30 min equilibration): 7.1 ± 0.4%
polymyxin B intensity per cell ([5]; combination polymyxin B 30 mg/L + tobramycin 70 mg/L, mean ± SD, p < 0.001 vs polymyxin B alone): 932.3 ± 136.0
polymyxin B intensity per cell ([5]; polymyxin B 30 mg/L alone, Alexa 647, mean ± SD, saline control 113.0 ± 13.6): 2259.3 ± 309.4
ratio of FITC-BSA to nucleus integrated density ([3]; 30 mg/L polymyxin B): 0.36 ± 0.03
ratio of FITC-BSA to nucleus integrated density ([3]; 60 mg/L polymyxin B): 0.29 ± 0.02
effect on cellular uptake of FITC-BSA [3]: prevented the cellular uptake of FITC-BSA in a concentration-dependent manner
cellular accumulation [4, 9]: 26.5 ± 2.1%
remaining in the apical chamber [4, 9]: 59.9 ± 1.2%
transported from the apical chamber to the basal chamber ([4]; drug alone, without sodium maleate, Calu-3 ALI monolayer, 2 h incubation, LC-MS/MS): 13.5 ± 1.6%
transported from the apical chamber to the basal chamber ([4]; in the presence of sodium maleate 8 mg/mL (4 h pre-incubation), Calu-3 ALI monolayer, 2 h incubation, LC-MS/MS): 8.2 ± 0.9%
cellular accumulation [4, 10]: 8.1 ± 0.4%
remaining in the apical chamber [4, 10]: 83.7 ± 1.3%
intracellular accumulation normalized to protein ([4]; with sodium maleate 8 mg/mL (4 h pre-incubation), LC-MS/MS): 1.9 ± 0.04 ng/µg of protein
intracellular accumulation normalized to protein ([4]; without sodium maleate, LC-MS/MS): 6.0 ± 0.8 ng/µg of protein

O=C([O-])/C=C\C(=O)[O-].[Na+].[Na+] [sodium maleate]
decrease of renal cortex accumulation of amikacin [6]: 50%
